# Test results published in PubChem BioAssay (NCI).
#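 Tested at 5 concentrations; 48 h exposure; 96-well plates; endpoints linearly interpolated, else capped at highest concentration. GI50 marks 50% less growth. TGI is the concentration that stops growth completely.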
# Columns and labels:
# Test in all cases: NCI anticancer screen, dose series, 48 h
# SNB-75 CNS = test system: SNB-75 CNS
# NCI/ADR-RES ovarian = test system: NCI/ADR-RES ovarian
# ACHN renal = test system: ACHN renal
# HS 578T breast = test system: HS 578T breast
# PC-3 prostate = test system: PC-3 prostate
# HT29 colon = test system: HT29 colon
# MDA-N = test system: MDA-N
# CCRF-CEM leukemia = test system: CCRF-CEM leukemia
# HOP-92 NSCLC = test system: HOP-92 NSCLC
# A498 renal = test system: A498 renal
SMILES,TGI (SNB-75 CNS),TGI (NCI/ADR-RES ovarian),TGI (ACHN renal),TGI (HS 578T breast),TGI (PC-3 prostate),TGI (HT29 colon),TGI (MDA-N),TGI (CCRF-CEM leukemia),TGI (HOP-92 NSCLC),TGI (A498 renal),GI50 (SNB-75 CNS),GI50 (NCI/ADR-RES ovarian),GI50 (ACHN renal),GI50 (HS 578T breast),GI50 (HT29 colon),GI50 (CCRF-CEM leukemia),GI50 (HOP-92 NSCLC),GI50 (A498 renal),GI50 (PC-3 prostate)
Cc1c2ccccc2cc2cccc[n+]12,83.7 µM,> 100 µM,> 100 µM,73 µM,> 100 µM,> 100 µM,> 100 µM,> 100 µM,,,,,,,,,,,
OC1CCSc2ccccc21 (centres undefined),,,> 100 µM,,,> 100 µM,,> 100 µM,,,,,,,,,,,
CC(C)C(=O)CC(c1ccc(Br)cc1)N1N=C(C(C)C)CC1c1ccc(Br)cc1 (centres undefined),,,> 100 µM,,,> 100 µM,,> 100 µM,> 100 µM,,,,,,,,,,
Oc1ccc(Cl)cc1C1=Nn2c(COc3ccc4c(c3)CCCC4)nnc2SC1,,41.2 µM,49.7 µM,30 µM,26.7 µM,,30.2 µM,46.3 µM,18.1 µM,11.8 µM,,,,,,,,,
CN(C)c1ccc(/C=C2\C[C@H]3[C@@H]4CC=C5C[C@@H](O)CC[C@]5(C)[C@H]4CC[C@]3(C)[C@H]2O)cc1,> 100 µM,43.7 µM,30.7 µM,50.8 µM,25.8 µM,27.5 µM,56.9 µM,,,31.5 µM,,,,,,,,,
COc1cc(S(=O)(=O)Nc2ccc(-c3csc(/N=C\c4cccc(Oc5ccccc5)c4)n3)cc2)ccc1Cl,80.1 µM,> 100 µM,71.8 µM,> 100 µM,> 100 µM,> 100 µM,,> 100 µM,58.6 µM,,,,,,,,,,
CS(=O)(=O)Nc1cccc(-c2ccc3ncnc(Nc4cncc(Cl)c4)c3c2)c1,> 100 µM,> 100 µM,> 100 µM,6.41 µM,,4.65 µM,,> 100 µM,26.8 µM,,2.77 µM,13.7 µM,1.11 µM,1.35 µM,1.85 µM,3.09 µM,1.83 µM,,
Nc1csc(-c2scc3c2OCCO3)c1N,,61.7 µM,> 100 µM,> 100 µM,62.5 µM,52.6 µM,38.8 µM,,71.8 µM,36.6 µM,,,,,,,,,
CC(CCCCNC(=O)OC(C)(C)C)NC(=O)NC(C)CCCCNC(=O)OC(C)(C)C (centres undefined),> 100 µM,> 100 µM,> 100 µM,> 100 µM,> 100 µM,> 100 µM,> 100 µM,> 100 µM,> 100 µM,> 100 µM,,,,,,,,,
Cc1cc(=O)[nH]c(S(=O)(=O)NC(=O)Nc2cccc(Cl)c2)n1,> 100 µM,> 100 µM,> 100 µM,> 100 µM,> 100 µM,> 100 µM,> 100 µM,> 100 µM,> 100 µM,> 100 µM,,,,,,,,,
CN(CCN1C(=O)c2cccc3cccc(c23)C1=O)CCN1C(=O)c2cccc3cccc(c23)C1=O,49.9 µM,> 100 µM,20.7 µM,> 100 µM,> 100 µM,> 100 µM,,6.91 µM,,,,,,,,,,,
CC12OC(C(=O)C13CCC3)C1C(=O)c3c(O)ccc(O)c3C(=O)C12 (centres undefined),20.1 µM,2.63 µM,2.01 µM,17.6 µM,9.09 µM,> 51.6 µM,,> 100 µM,,29.8 µM,4.99 µM,0.69 µM,0.715 µM,4.38 µM,0.897 µM,0.38 µM,,14.5 µM,2.72 µM
CC(C)(C)COS(=O)OCC(C)(C)C,> 100 µM,> 100 µM,> 100 µM,> 100 µM,> 100 µM,> 100 µM,> 100 µM,> 100 µM,> 100 µM,> 100 µM,,,,,,,,,
O=C1/C(=C/c2ccc([N+](=O)[O-])cc2)Sc2scc(-c3cccc([N+](=O)[O-])c3)[n+]21,25.6 µM,26.3 µM,14 µM,48.1 µM,26.8 µM,9.35 µM,15.7 µM,1.3 µM,13.8 µM,7.98 µM,,,,,,,,,
CN(CCc1ccccn1)c1ccc2c(c1)Cc1ccccc1-2,45.2 µM,> 100 µM,> 100 µM,9.92 µM,23.9 µM,> 100 µM,,68.8 µM,31.9 µM,50.6 µM,,,,,,,,,
Fc1c(F)c(F)c(CSc2nc3ccccc3[nH]2)c(F)c1F,> 100 µM,> 100 µM,> 100 µM,> 100 µM,> 100 µM,> 100 µM,> 100 µM,> 100 µM,> 100 µM,> 100 µM,,,,,,,,,
C#C[C@]1(O)[C@@H](CO)O[C@@H](n2ccc(=O)[nH]c2=O)[C@@H]1O,,,0.602 µM,> 23.5 µM,> 29.6 µM,> 100 µM,1.71 µM,> 100 µM,,> 100 µM,,,,,,,,,
C/C=C/C(O)P(=O)(OC)OC (centres undefined),1.49 µM,,1.25 µM,0.915 µM,1.43 µM,1.11 µM,0.671 µM,> 100 µM,0.27 µM,0.955 µM,,,,,,,,,
